{
  "source": "patent US20240360459A1",
  "about": "(Nankai University, priority 2023, published 2024)",
  "molecular_target": "Mtb ATP synthase (Mycobacterium tuberculosis, UniProt P9WPS1+P9WPV7)",
  "test": "biochemical",
  "type": "binding",
  "data": [
    {"smiles": "COc1nc2ccc(Br)cc2cc1[C@@H](c1ccccc1)[C@@](O)(CCN(C)C)c1cccc2ccccc12", "note": "[bedaquiline]", "values": [
      {"measurement": "Kd", "result": 36.5, "unit": "µM"}
    ]}
  ]
}
